Drawing on a melting point compilation (Tetko et al.), this text covers melting point for 47 molecules.

Non-standard residues stand in square brackets, D forms with d. Residues, ends and D or L forms follow the SMILES beside them. *: point of attachment. X5 = CCC(=O)OC1(C(=O)C(O)O*)CCC2C3CC(C)C4=CC(=O)C=CC4(C)C3C(O)CC21C; pGlu = O=C1CC[C@@H](C(=O)O)N1; Cbz = O=C(OCc1ccccc1)*; Pentanoyl = CCCCC(=O)*; Boc = CC(C)(C)OC(=O)*; OBn = c1ccc(CO*)cc1; Bn = c1ccc(C*)cc1; azaGly = NNC(=O)O

As a reminder, the melting point is the temperature, or range, at which the solid turns liquid.

Molecule `FC(F)OC(Cl)C(F)(F)F` (configuration not stated) gave a melting point of -108 °C.
Under `CC(=O)OCC(COC(C)=O)NC(=O)c1c(I)c(C(=O)NC(COC(C)=O)COC(C)=O)c(I)c(N2CCC(Br)C2=O)c1I` (configuration not stated) stands 232 to 234 °C; under `CC(NC(=O)C(Cc1ccc(OCc2ccccc2)cc1)NC(=O)C(COCc1ccccc1)NC(=O)C(Cc1c[nH]c2ccccc12)NC(=O)OC(C)(C)C)C(N)=O` (configuration not stated) (Boc-WS(Bn)Y(Bn)A-NH2; configuration not given here), 180 to 185 °C; under `CCCCC(C)OC(=O)c1c(I)c(I)c(C(=O)OC(C)CCCC)c(I)c1I` (configuration not stated), 114 to 115 °C.
As for `CC#CCOc1ccc(S(=O)(=O)C(C(=O)NO)C2CCCCC2)cc1` (configuration not stated), the melting point was 191 °C.
In turn, `CCCCC(=O)NC(C)C(=O)NC(C)C(=O)N1CCCC1C(=O)NC(C(=O)OC(O)C(=O)C1(OC(=O)CC)CCC2C3CC(C)C4=CC(=O)C=CC4(C)C3C(O)CC21C)C(C)C` (configuration not stated) (Pentanoyl-AAPV-X5; configuration not given here) gave a melting point of 142 °C.
Under `CSCCC(NC(=O)C(CCC(N)=O)NC(=O)OC(C)(C)C)C(=O)NC(C)C(=O)NC(C(=O)NC(CCCCNC(=O)OCc1ccccc1)C(=O)OCc1ccccc1)C(C)C` (configuration not stated) (Boc-QMAVK(Cbz)-OBn; configuration not given here) stands 238 to 241 °C.
In turn, `Cc1cc(C(C)(C)C)c(O)c(C)c1CCCCCCCCCCCCCCCCCCCOCCCCCCCCCCCCCCCCCCCc1c(C)cc(C(C)(C)C)c(O)c1C` showed a melting point of 52 °C.
Under `CC(=O)c1ccc(-n2c(-c3sc(Nc4ccc(Cl)cc4)nc3C)nc3ccccc3c2=O)cc1` stands 209 to 210 °C.
The value for `O=C(Oc1c(I)cc(I)c(Br)c1I)C(F)(F)C(F)(Br)C(F)(F)Br` (configuration not stated) was 56 to 57 °C; that for `O=C(O)C1=Cc2cc(Br)ccc2NC1C(F)(F)F` (configuration not stated) was 185 to 186 °C.
Under `CN=S(=O)(c1nc(-c2ccc(F)cc2)cs1)C(C)c1ccc(C(F)(F)F)nc1` (configuration not stated) stands 89 to 94 °C.
Consider `CCCc1nc(OC)c(NC(=O)N2CCN(c3cc(OC)cc(OC)c3)CC2)cc1C(=O)NC(C)C(=O)Nc1cc(CO)cc(Nc2c3ccccc3nc3ccccc23)c1` (configuration not stated), for which the melting point fell in the range of 220 to 222 °C.
The molecule `CCCCCCCCCCCCCCCC(=O)C(O)[C@](O)(C(=O)CCCCCCCCCCCCCCC)[C@@H](O)[C@H](O)[C@@](O)(C(=O)CCCCCCCCCCCCCCC)C(O)C(=O)CCCCCCCCCCCCCCC` (some centres not stated) returned a melting point of 72 to 74 °C.
`CCCCCCCCCCCCCCCC(=O)OCC(COC(=O)CCCCCCCCCCCCCCC)OC(=O)CCCC(=O)Oc1cc(Cl)ccc1Oc1ccc(Cl)cc1Cl` displayed a melting point of 44 to 46 °C.
In turn, `Cc1c(NC(=O)c2cccc(OCC(=O)NCCNC(=O)COc3cccc(C(=O)O)c3)c2)c2ccccn2c1C(=O)c1ccc(NC(=O)C(F)(F)F)c(C(=O)OCc2ccccc2)c1` registered a melting point of 197 °C.
For `CC(C)(O)CCOc1c(-c2ccc(S(N)(=O)=O)cc2)cnn(-c2ccc(F)cc2)c1=O`, the melting point was 163 to 164 °C.
`COc1ccc2c(c1)c(CC(=O)NCC(C)(C)SN=O)c(C)n2C(=O)c1ccc(Cl)cc1`: the melting point was 177 to 178 °C.
The value for `CC(C)(C)c1cc(CCC(=O)OCC(COCC(COC(=O)CCc2cc(C(C)(C)C)c(O)c(C(C)(C)C)c2)OC(=O)CCc2cc(C(C)(C)C)c(O)c(C(C)(C)C)c2)OC(=O)CCc2cc(C(C)(C)C)c(O)c(C(C)(C)C)c2)cc(C(C)(C)C)c1O` (configuration not stated) was 57 °C; that for `CCCCCCCCCCCCCCCCS(=O)(=O)Nc1ccc2c(c1)C(NS(=O)(=O)CCCCCCCCCCCCCCCC)(c1ccccc1)C=N2` (configuration not stated) was 210 to 212 °C; that for `CC1CNc2c(cccc2S(=O)(=O)NC(CCCc2cn(C(c3ccccc3)(c3ccccc3)c3ccccc3)cn2)C(=O)N2CCC(C)CC2C(=O)NOCc2ccccc2)C1` (configuration not stated) was 90 to 100 °C.
`Cc1ccc(Cc2cc(OCCCCCCCCCCCCP(=O)(O)O)ccc2S(=O)(=O)c2ccc(OCCCCCCCCCCCCP(=O)(O)O)cc2Cc2ccc(C)cc2)cc1` displayed a melting point of 148 to 150 °C.
As to `O=C1OC(=O)c2ccc3c4c(ccc1c24)C(=O)OC3=O`, the melting point came out at 300 °C.
The value for `COc1cc(OC)c(C=CC(c2ccc(OC)c(CC(=O)O)c2)(S(N)(=O)=O)S(=O)(=O)C(C=Cc2c(OC)cc(OC)cc2OC)(c2ccc(OC)c(CC(=O)O)c2)S(N)(=O)=O)c(OC)c1` (configuration not stated) was 180 to 184 °C; that for `Cc1cc(Oc2ccc3nc(COc4ccc(CC(Nc5ccccc5C(=O)c5ccccc5)C(=O)O)cc4)n(C)c3c2)cc(C)c1NC(=O)Nc1ccc(C(F)(F)F)cc1` (configuration not stated) was 165 to 172 °C; that for `CC(=O)Oc1ccc(-c2cnc(N(S(=O)(=O)Cc3ccc(I)cc3)S(=O)(=O)Cc3ccc(I)cc3)c(Cc3ccccc3)n2)cc1` was 166 to 167 °C.
`CCCCc1nc2c(N)nc3ccccc3c2n1CCCCNC(=O)Nc1ccc(Oc2ccc(NC(=O)NCCCCn3c(CCCC)nc4c(N)nc5ccccc5c43)cc2)cc1` registered a melting point of 152 to 156 °C.
The value for `N=C(NC(=O)OCc1ccccc1)N(CCCC(NC(=O)C(Cc1ccccc1)NC(=O)OCc1ccccc1)C(=O)Oc1cccc2ccccc12)C(=O)OCc1ccccc1` (configuration not stated) was 125 to 130 °C.
As for `O=C(Cl)C(F)(F)F`, the melting point is -146 °C.
The value for `C=CC(=O)OCCCCCCCCCCCOc1ccc(-c2nc(-c3ccc(OCCCCCCCCCCCOC(=O)C=C)cc3O)nc(-c3ccc(OCCCCCCCCCCCOC(=O)C=C)cc3O)n2)c(O)c1` was 72.8 °C; that for `CC(C)C[C@H](NC(=O)[C@@H](Cc1ccccc1)NC(=O)[C@H](Cc1ccc(O)cc1)NC(=O)[C@H](CO)NC(=O)[C@H](Cc1c[nH]c2ccccc12)NC(=O)[C@@H](Cc1ccccc1)NC(=O)[C@@H]1CCC(=O)N1)C(=O)N[C@@H](CCCNC(=N)N)C(=O)N1CCC[C@H]1C(=O)NNC(N)=O` ([pGlu][dF]WSY[dF]LRP[azaGly]-NH2) was 179 to 180 °C; that for `C[C@H](Cc1ccc(OCCCN2CCCCC2)c(OCCCN2CCCCC2)c1)[C@@H](C)Cc1ccc(OCCCN2CCCCC2)c(OCCCN2CCCCC2)c1` was 84 to 86 °C.
Under `Cc1ccc(C(=O)Oc2ccc3c(OC(=O)c4ccc(C)c(OCc5ccccc5)c4)c4ccccc4cc3c2OC(=O)c2ccc(C)c(OCc3ccccc3)c2)cc1OCc1ccccc1` stands 132 to 135 °C.
For `CC(C)(O)C(=O)c1ccc(C(OC(=O)c2ccc(C(=O)OC(c3ccc(C(=O)C(C)(C)O)cc3)c3ccc(C(=O)C(C)(C)O)cc3)cc2)c2ccc(C(=O)C(C)(C)O)cc2)cc1`, the melting point worked out at 102 °C.
As to `Cc1nc(C(=O)Cl)c(C)o1`, the melting point came out at 37.7 °C.
Under `CC(C)[C@H](NC(=O)N(C)Cc1ccccn1)C(=O)N[C@@H](Cc1ccccc1)[C@H](O)[C@@H](O)[C@H](Cc1ccccc1)NC(=O)[C@@H](NC(=O)N(C)Cc1csc(N)n1)C(C)C` stands 97 to 99 °C; under `C=C(C)[C@@H]1CC[C@]2(C(=O)N[C@H]3C[C@@H](C(=O)N4CCCCC4)C3(C)C)CC[C@]3(C)[C@H](CC[C@@H]4[C@@]5(C)CC[C@H](OC(=O)[C@@H]6C[C@H](C(=O)O)C6(C)C)C(C)(C)[C@@H]5CC[C@]43C)[C@@H]12`, 258 to 269 °C.
On to `COc1ccc(-c2cc(C(=O)NCCCCCCc3ccccc3)cc(-c3cccc(C(F)(F)F)c3)c2OCC(=O)O)cc1`, for which the melting point lay within 153 to 159 °C.
The value for `CC(C)(C)c1cc(C(=O)OCCN(CCOC(=O)c2cc(C(C)(C)C)c(O)c(C(C)(C)C)c2)C(=O)c2cc(C(C)(C)C)c(O)c(C(C)(C)C)c2)cc(C(C)(C)C)c1O` was 200 to 202 °C.
Molecule `COc1cc(COc2nn(-c3ccccc3)cc2/C=C/c2nc(N3CCN(C(=O)OC(C)(C)C)CC3)sc2C)ccc1OCc1nc(-c2ccc(CC(=O)O)cc2)oc1C` returned a melting point of 119 to 120 °C.
The molecule `FC(F)(F)c1ccc(Cl)nc1Cl` showed a melting point of 6 °C.
The molecule `CCCCCCCCCCS(=O)(=O)c1c(S(=O)(=O)CCCCCCCCCC)c(S(=O)(=O)CCCCCCCCCC)c(S(=O)(=O)CCCCCCCCCC)c(S(=O)(=O)CCCCCCCCCC)c1S(=O)(=O)CCCCCCCCCC` registered a melting point of 76 °C.
`CCOC(=O)c1cnc2snc(C)c2c1N(C)S(=O)(=O)c1ccc(Oc2ccncc2)cc1` displayed a melting point of 57 to 60 °C.
With `COc1cc(OC)c(/C=C/C(c2ccc(OC)c(NC(=O)c3ccccc3)c2)S(=O)(=O)C(/C=C/c2c(OC)cc(OC)cc2OC)c2ccc(OC)c(NC(=O)c3ccccc3)c2)c(OC)c1` (configuration not stated), the melting point was 163 to 166 °C.
Under `FC(F)(Br)C(F)(Cl)Br` (configuration not stated) stands -72.9 °C; under `CCC1(CC)c2cc(-c3nc4ccccc4s3)ccc2-c2ccc(N(c3ccc4c(c3)C(CC)(CC)c3cc(-c5nc6ccccc6s5)ccc3-4)C3CCCCC3)cc21`, 262 to 264 °C; under `COc1ccc(C(=O)c2ccc(OCc3nc(-c4ccccc4)oc3C)cc2)c(O)c1`, 156 to 157 °C.
